Among the targets are LIM domain kinase 2 (Homo sapiens, UniProt P53671); Myosin-14 (Homo sapiens, UniProt Q7Z406); Activated CDC42 kinase 1 (Homo sapiens, UniProt Q07912).
Experiment [1] addresses Bone morphogenetic protein receptor type-1A (Homo sapiens, UniProt P36894).
For experiment [2], the target named is Cyclin-dependent kinase 13 (Homo sapiens, UniProt Q14004).
For experiment [3], the target named is Maternal embryonic leucine zipper kinase (Homo sapiens, UniProt Q14680).
For experiment [4], the target named is T1, Mitogen-activated protein kinase kinase kinase 2 (Homo sapiens, UniProt Q9Y2U5).
T1 sequence (Q9Y2U5 whole entry): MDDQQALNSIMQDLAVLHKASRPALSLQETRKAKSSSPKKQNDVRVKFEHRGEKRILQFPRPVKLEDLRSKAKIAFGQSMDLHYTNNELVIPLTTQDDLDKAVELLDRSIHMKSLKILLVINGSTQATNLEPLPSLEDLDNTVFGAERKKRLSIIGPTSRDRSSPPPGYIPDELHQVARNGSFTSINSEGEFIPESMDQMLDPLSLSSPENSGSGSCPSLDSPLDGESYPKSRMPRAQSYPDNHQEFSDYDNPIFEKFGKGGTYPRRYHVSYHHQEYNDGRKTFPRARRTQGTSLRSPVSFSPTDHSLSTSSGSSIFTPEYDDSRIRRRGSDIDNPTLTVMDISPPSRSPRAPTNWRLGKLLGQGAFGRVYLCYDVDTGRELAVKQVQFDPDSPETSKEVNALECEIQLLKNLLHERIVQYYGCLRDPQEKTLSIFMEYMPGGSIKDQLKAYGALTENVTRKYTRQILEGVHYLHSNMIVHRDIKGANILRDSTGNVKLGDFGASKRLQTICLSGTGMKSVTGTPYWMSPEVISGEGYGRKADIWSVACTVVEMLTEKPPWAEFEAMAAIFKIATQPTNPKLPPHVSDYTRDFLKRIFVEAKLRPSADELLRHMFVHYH

Experiment [5] deals with Mitogen-activated protein kinase 11 (Homo sapiens, UniProt Q15759).
Sequence of Mitogen-activated protein kinase 11 (Q15759 whole entry): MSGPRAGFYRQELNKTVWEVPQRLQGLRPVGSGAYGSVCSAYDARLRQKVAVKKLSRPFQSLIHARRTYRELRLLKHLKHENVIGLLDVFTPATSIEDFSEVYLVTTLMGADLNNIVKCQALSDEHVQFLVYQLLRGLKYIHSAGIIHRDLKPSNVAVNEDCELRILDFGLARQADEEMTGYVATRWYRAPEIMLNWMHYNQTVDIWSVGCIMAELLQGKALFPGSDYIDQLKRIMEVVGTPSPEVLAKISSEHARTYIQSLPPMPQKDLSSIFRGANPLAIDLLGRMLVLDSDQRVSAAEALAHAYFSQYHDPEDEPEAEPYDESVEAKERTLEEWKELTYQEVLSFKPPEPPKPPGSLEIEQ
The target in experiment [6] is Chromodomain-helicase-DNA-binding protein 4 (Homo sapiens, UniProt Q14839).
The target of another experiment is T2, Scaffold protein ILK (Homo sapiens, UniProt Q13418).
T2 sequence (Q13418 whole entry): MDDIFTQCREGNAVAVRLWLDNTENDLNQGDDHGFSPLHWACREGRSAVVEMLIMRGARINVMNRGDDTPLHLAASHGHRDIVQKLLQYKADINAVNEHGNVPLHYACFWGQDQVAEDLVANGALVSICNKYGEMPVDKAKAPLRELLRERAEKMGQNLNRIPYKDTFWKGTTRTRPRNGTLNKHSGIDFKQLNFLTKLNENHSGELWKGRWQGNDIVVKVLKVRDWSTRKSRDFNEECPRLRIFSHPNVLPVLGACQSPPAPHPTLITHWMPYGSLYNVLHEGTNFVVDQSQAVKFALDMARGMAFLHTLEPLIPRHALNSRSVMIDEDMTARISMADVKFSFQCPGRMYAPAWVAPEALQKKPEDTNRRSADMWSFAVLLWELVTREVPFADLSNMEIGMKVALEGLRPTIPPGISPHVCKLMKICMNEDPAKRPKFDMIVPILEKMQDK

Experiment [7] concerns the target Proto-oncogene tyrosine-protein kinase Src (Homo sapiens, UniProt P12931).
For experiment [8], the target named is Casein kinase I isoform alpha (Homo sapiens, UniProt P48729).
Sequence of Casein kinase I isoform alpha (P48729 whole entry, canonical isoform): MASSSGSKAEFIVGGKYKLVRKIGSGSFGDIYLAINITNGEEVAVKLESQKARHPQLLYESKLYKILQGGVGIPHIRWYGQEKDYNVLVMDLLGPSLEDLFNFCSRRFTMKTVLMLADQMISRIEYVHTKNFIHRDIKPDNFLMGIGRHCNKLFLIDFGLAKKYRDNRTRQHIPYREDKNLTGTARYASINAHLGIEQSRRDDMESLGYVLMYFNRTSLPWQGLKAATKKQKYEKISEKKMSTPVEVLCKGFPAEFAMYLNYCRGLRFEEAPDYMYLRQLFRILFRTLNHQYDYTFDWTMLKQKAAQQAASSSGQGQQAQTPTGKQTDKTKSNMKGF
In experiment [9] the target is T3, Mitogen-activated protein kinase kinase kinase 5 (Homo sapiens, UniProt Q99683).
T3 sequence (Q99683 whole entry): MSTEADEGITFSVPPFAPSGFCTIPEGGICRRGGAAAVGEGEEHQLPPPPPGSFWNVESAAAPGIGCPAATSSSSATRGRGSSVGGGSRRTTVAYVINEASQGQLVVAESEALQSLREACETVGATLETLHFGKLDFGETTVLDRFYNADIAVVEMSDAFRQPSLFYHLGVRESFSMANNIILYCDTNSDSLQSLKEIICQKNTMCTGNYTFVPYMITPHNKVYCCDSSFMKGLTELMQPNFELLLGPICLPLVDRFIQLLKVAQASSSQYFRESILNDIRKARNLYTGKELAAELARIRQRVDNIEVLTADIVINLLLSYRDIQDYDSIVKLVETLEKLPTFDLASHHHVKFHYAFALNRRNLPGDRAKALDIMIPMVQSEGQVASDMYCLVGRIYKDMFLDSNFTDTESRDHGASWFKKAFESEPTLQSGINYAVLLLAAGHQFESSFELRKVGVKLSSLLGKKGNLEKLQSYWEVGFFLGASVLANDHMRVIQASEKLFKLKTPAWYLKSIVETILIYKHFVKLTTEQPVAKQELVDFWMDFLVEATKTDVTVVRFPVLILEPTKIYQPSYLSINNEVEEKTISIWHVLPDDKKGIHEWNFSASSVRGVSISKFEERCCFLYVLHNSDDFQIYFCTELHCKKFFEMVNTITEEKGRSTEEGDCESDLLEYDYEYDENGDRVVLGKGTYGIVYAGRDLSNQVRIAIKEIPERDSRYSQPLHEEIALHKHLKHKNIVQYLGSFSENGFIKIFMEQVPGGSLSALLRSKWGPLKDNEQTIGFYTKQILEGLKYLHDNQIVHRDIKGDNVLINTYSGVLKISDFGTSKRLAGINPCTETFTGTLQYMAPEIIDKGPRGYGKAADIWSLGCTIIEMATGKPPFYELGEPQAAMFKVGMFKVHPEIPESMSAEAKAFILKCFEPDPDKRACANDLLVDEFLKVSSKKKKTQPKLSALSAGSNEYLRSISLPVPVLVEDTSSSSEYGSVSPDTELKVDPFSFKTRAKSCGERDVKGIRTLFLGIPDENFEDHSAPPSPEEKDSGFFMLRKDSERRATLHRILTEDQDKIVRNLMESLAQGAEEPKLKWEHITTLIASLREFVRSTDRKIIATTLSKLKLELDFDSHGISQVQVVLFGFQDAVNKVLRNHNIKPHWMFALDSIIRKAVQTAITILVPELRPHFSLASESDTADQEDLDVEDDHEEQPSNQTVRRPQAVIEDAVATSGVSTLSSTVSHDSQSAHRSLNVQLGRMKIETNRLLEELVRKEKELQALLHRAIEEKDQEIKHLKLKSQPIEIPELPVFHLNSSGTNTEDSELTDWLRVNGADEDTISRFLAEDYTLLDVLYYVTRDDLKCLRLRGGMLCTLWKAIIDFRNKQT

Activity calls are given as the source filed them. For most assays here, no stated cut-off is given here; in the data, actives have a measured Kd and inactives only a lower limit.

Sequence of Activated CDC42 kinase 1 (Q07912 whole entry): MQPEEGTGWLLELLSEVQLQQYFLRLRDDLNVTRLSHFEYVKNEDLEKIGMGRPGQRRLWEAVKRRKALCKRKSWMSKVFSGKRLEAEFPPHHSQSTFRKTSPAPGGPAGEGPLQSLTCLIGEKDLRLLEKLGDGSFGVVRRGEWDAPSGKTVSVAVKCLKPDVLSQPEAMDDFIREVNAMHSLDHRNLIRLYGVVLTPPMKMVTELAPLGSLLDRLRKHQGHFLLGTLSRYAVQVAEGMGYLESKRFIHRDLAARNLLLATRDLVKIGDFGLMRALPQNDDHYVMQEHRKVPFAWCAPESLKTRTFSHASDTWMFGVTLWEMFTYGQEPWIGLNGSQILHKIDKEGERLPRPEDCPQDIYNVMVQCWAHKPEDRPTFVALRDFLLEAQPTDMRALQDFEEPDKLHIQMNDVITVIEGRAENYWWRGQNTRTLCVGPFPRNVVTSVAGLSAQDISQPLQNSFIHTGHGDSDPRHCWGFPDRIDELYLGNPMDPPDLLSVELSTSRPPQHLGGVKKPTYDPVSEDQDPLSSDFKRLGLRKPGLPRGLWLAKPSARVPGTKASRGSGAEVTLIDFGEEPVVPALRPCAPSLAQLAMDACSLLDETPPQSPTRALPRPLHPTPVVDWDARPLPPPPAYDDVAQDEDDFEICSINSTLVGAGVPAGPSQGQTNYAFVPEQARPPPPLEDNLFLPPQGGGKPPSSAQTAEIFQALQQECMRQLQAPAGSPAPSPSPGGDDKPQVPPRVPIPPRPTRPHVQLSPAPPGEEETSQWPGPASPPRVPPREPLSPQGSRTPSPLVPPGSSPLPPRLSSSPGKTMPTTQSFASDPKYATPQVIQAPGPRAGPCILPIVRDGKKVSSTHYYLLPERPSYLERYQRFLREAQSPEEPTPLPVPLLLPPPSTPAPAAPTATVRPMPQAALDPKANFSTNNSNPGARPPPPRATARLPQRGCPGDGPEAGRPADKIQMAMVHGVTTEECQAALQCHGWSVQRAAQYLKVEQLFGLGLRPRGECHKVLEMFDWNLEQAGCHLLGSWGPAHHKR
Sequence of LIM domain kinase 2 (P53671 whole entry, the tested form may be a part): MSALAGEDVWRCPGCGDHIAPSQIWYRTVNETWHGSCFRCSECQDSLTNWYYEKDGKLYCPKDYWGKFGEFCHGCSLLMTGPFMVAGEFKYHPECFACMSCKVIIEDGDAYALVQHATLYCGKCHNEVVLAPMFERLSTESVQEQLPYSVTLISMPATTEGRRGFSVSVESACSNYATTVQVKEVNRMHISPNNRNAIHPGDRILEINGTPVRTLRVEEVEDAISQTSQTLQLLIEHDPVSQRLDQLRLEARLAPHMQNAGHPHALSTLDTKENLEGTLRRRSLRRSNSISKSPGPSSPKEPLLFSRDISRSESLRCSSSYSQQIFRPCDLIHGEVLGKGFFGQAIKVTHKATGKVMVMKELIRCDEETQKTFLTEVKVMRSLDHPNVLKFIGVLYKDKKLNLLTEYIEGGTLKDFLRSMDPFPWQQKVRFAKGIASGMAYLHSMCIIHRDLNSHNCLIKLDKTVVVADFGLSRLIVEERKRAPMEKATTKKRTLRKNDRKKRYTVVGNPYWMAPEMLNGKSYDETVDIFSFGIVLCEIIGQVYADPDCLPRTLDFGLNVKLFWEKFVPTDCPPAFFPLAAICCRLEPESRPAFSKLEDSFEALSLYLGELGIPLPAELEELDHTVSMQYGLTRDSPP
Sequence of Cyclin-dependent kinase 13 (Q14004 whole entry): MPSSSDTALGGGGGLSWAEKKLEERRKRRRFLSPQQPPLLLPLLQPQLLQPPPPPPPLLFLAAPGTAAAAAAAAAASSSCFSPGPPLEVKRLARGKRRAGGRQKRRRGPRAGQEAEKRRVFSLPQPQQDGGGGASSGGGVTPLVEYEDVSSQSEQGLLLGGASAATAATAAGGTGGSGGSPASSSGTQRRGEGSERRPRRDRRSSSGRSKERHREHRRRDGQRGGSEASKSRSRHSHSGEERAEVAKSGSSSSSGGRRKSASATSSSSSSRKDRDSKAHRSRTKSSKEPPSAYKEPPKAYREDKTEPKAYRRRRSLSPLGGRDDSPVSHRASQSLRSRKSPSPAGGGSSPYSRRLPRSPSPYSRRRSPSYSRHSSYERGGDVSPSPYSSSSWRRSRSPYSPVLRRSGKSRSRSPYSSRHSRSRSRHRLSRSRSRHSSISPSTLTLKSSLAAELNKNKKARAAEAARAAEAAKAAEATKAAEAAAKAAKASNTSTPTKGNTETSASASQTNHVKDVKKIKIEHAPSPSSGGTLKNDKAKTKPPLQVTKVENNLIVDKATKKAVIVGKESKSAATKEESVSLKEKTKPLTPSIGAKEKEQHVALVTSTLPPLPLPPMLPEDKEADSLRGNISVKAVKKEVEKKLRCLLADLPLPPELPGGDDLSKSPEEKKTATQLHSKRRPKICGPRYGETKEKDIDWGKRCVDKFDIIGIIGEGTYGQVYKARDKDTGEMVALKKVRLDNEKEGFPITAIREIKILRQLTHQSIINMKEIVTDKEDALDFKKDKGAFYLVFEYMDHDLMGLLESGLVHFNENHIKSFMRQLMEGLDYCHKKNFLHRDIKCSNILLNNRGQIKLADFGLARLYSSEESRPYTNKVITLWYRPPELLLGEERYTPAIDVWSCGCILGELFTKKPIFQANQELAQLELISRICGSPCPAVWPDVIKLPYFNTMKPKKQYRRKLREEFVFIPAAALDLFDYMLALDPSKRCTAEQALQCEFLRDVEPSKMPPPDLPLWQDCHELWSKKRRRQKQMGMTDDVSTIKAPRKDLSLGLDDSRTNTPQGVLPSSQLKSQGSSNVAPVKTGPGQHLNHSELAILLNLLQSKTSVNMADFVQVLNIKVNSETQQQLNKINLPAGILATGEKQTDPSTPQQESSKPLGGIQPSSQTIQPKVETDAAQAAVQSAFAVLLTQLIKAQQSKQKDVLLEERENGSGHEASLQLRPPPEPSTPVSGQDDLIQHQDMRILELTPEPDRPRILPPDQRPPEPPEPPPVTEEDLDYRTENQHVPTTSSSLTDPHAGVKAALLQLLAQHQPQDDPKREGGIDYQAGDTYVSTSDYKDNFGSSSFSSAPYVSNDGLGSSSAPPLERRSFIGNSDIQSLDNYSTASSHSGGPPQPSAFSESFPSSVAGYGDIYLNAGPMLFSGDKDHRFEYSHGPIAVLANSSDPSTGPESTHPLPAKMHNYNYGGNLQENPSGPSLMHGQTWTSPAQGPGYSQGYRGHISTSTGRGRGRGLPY
Sequence of Bone morphogenetic protein receptor type-1A (P36894 whole entry): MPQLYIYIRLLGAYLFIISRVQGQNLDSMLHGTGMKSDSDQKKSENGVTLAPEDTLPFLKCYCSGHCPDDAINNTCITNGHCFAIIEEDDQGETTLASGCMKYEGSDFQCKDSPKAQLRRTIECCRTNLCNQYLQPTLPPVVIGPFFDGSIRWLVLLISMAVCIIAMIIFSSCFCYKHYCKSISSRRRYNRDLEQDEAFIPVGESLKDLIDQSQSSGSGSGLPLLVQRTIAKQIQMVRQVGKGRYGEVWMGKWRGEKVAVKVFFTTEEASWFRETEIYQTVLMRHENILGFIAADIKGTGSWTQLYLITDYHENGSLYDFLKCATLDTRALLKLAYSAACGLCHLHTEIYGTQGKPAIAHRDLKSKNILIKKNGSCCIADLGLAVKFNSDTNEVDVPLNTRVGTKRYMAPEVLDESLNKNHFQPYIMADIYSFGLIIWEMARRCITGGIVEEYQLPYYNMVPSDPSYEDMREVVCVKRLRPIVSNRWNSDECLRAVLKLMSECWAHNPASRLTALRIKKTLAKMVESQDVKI
Sequence of Maternal embryonic leucine zipper kinase (Q14680 whole entry): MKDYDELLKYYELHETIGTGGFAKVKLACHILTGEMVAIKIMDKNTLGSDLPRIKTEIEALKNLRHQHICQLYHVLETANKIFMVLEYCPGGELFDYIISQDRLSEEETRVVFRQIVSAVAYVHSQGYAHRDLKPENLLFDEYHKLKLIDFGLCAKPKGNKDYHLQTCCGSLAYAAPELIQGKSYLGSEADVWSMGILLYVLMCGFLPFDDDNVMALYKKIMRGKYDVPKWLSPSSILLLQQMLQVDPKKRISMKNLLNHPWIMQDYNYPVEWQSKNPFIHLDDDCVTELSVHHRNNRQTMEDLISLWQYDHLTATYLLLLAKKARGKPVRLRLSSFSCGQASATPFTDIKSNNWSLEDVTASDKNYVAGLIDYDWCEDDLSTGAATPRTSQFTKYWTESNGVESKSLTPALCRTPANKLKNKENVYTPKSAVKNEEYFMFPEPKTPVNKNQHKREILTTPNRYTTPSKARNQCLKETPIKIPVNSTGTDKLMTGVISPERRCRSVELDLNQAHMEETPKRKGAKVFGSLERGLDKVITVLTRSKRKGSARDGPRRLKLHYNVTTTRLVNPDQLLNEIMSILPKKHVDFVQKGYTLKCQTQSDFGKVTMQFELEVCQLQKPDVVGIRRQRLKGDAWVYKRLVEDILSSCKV

In the case of `C=CC(=O)Nc1cc(Nc2nccc(-c3cn(C)c4ccccc34)n2)c(OC)cc1N(C)CCN(C)C` [OSIMERTINIB], the Kd (in experiment [1]; at LIM domain kinase 2; in experiment [2]; in [3]; in [4]; in experiment [5]) was > 30 µM (inactive) in each case. The Kd (in experiment [6]; at Myosin-14; at Activated CDC42 kinase 1; at Scaffold protein ILK; in experiment [7]; in experiment [8]) was > 30 µM (inactive) each time. For the same compound, the Kd (commonly the equilibrium constant for the complex coming apart) in experiment [9] was > 30 µM (inactive).
Turning to `COc1cccc(Nc2ncnn3ccc(CN4CC[C@@H](N)[C@H](O)C4)c23)c1` [BMS-690514], the Kd in [1] is > 30 µM (inactive); at LIM domain kinase 2 it was > 30 µM (inactive); in experiment [2] it was > 30 µM (inactive); in experiment [3] it was > 30 µM (inactive); in [4], 1.05 µM (active); in [5], > 30 µM (inactive). Besides, the Kd is > 30 µM (inactive) in experiment [6]; > 30 µM (inactive) at Myosin-14; 0.208 µM (active) at Activated CDC42 kinase 1; > 30 µM (inactive) on Scaffold protein ILK; 1.15 µM (active) in experiment [7]; 1.37 µM (active) in experiment [8]. For the same compound, the Kd in [9] was > 30 µM (inactive).
In the case of `Cn1c(=O)c(F)c(Nc2ccc(I)cc2F)c2c(=O)n(C[C@@H](O)CO)cnc21` [TAK-733], the Kd (in experiment [1]; at LIM domain kinase 2; in [2]; in experiment [3]; in experiment [4]; in experiment [5]) was > 30 µM (inactive) throughout. For the same compound, the Kd (in experiment [6]; on Myosin-14; on Activated CDC42 kinase 1; at Scaffold protein ILK; in experiment [7]; in experiment [8]) was > 30 µM (inactive) in each case. Also, the Kd in [9] was > 30 µM (inactive).
As for `COc1cc(Nc2ncc(F)c(Nc3ccc4c(n3)N(COP(=O)(O)O)C(=O)C(C)(C)O4)n2)cc(OC)c1OC` [FOSTAMATINIB], the Kd (in experiment [1]; at LIM domain kinase 2; in experiment [2]; in experiment [3]; in experiment [4]; in experiment [5]) was > 30 µM (inactive) throughout. Besides, the Kd (in experiment [6]; on Myosin-14; on Activated CDC42 kinase 1; at Scaffold protein ILK; in experiment [7]; in experiment [8]) was > 30 µM (inactive) each time. Moreover, the Kd in [9] is > 30 µM (inactive).
Regarding `C#Cc1cccc(Nc2ncnc3cc4c(cc23)OCCOCCOCCO4)c1` [ICOTINIB], the Kd (in [1]; at LIM domain kinase 2; in experiment [2]; in experiment [3]; in experiment [4]; in experiment [5]) was > 30 µM (inactive) in each case. Moreover, the Kd (in [6]; on Myosin-14; at Activated CDC42 kinase 1; at Scaffold protein ILK; in [7]; in experiment [8]) was > 30 µM (inactive) each time. Also, in experiment [9], the Kd is > 30 µM (inactive).
With `Cn1cc(-c2[nH]c3cc(NC(=O)[C@H](N)C4CCCCC4)cc4c3c2C=NNC4=O)cn1`, the Kd is 0.814 µM (active) in experiment [1]; 0.205 µM (active) on LIM domain kinase 2; > 30 µM (inactive) in [2]; 45.7 µM (active) in experiment [3]; > 30 µM (inactive) in experiment [4]; > 30 µM (inactive) in experiment [5]. The Kd in experiment [6] is > 30 µM (inactive); on Myosin-14, > 30 µM (inactive); at Activated CDC42 kinase 1, > 30 µM (inactive); at Scaffold protein ILK, > 30 µM (inactive); in experiment [7], 1.4 µM (active); in experiment [8], > 30 µM (inactive). The Kd in [9] was > 30 µM (inactive).
In the case of `CC(C)(O)CC(=O)NCCn1ccc2ncnc(Nc3ccc(Oc4cccc(C(F)(F)F)c4)c(Cl)c3)c21` [TAK-285], the Kd (in [1]; at LIM domain kinase 2; in experiment [2]; in experiment [3]; in [4]; in experiment [5]) was > 30 µM (inactive) throughout. In addition, the Kd (in experiment [6]; on Myosin-14; on Activated CDC42 kinase 1; on Scaffold protein ILK; in [7]; in experiment [8]) was > 30 µM (inactive) in each case. For the same compound, the Kd in experiment [9] was > 30 µM (inactive).
Consider `Cc1cc(C(=O)Nc2cc(Oc3ccc4nc(NC(=O)C5CC5)cn4n3)ccc2C)n(C)n1` [TAK-593], for which the Kd (in [1]; at LIM domain kinase 2; in experiment [2]; in [3]; in experiment [4]; in [5]) was > 30 µM (inactive) each time. For the same compound, the Kd (in [6]; on Myosin-14; on Activated CDC42 kinase 1; at Scaffold protein ILK; in experiment [7]; in [8]) was > 30 µM (inactive) throughout. For the same compound, in experiment [9], the Kd is > 30 µM (inactive).

The record behind these values is ChEMBL document CHEMBL3991601, “The target landscape of clinical kinase drugs” (Science, 2017).
